In brackets after ≈: the same amount, converted by molar mass. Where two headings read alike, the source gives them in different places.
Columns and labels:
[1] = Rat protein binding, equilibrium dialysis of rat plasma; type: in vitro ADME; details: rat, rat plasma, 2 μg/mL, 24 hours dialysis at 37° C.
Description: (§1) The extent of in vitro binding of Compound (1F), […], or W-212393 to rat plasma was determined as an assessment of the protein binding of each compound, i.e., compound unavailable for modulating receptor activity. Plasma from rats containing a tested compound in one chamber of a dialysis cell was dialyzed with PBS in the other chamber; thereafter, the supernatant from each chamber was analyzed for the concentration of the tested compound present. A cell suitable for equilibrium dialysis was used in the determinations. The dialysis membrane described in Example 10 (with molecular mass cutoff of 12,000-14,000 Da) separated the dialysis cell into two chambers. The membrane was soaked with purified water and PBS before being placed into the dialysis cell. 4 μL of an iv formulation of each tested compound was added to 996 μL of rat plasma, the latter obtained using syringe containing heparin and EDTA by the procedure described in Example 10, to provide a plasma sample with a tested compound concentration of 2 μg/mL. 450 μL of the plasma sample was applied to one chamber (plasma chamber) of the dialysis cell. A 450 μL aliquot of PBS was applied to the other chamber (PBS chamber) of the dialysis cell. The dialysis study was conducted in duplicate for each tested compound. After 24 hours of equilibrium dialysis at 37° C., 30 μL of liquid from the plasma chamber of the dialysis cell was collected and to this was added 270 μL of fresh PBS (this combination was designated Sample “1”). Then, 270 μL of liquid from the PBS chamber of the dialysis cell was collected and to this was added 30 μL of control rat plasma (i.e., rat plasma never exposed to any test compound, this combination was designated Sample “2”). Thereafter, each sample was mixed well and stored in a freezer until the next analysis step. After the protein precipitated in the freezer, each supernatant thusly obtained was analyzed by LC-MS-MS for unbound test compound. […] Thereafter, the percentage of rat protein-bound (“RPB”) tested compound was calculated as follows: […]

[2] = In vivo bioavailability after oral dosing; details: male, Sprague-Dawley [Crl:CD(SD)], rat, plasma; 1 mg/kg oral, non-fasted; mean of multiple determinations
[3] = in vivo; details: male, Crl, CD(SD), rat, brain homogenate and plasma, intravenous, 0.5 mg/kg
[4] = test system: human liver microsomes; assay: In vitro metabolic stability, human liver microsomes; type: in vitro ADME; details: 2 μM, % remaining after 30 minutes at 37° C.
Description: (§2) The comparative in vitro metabolic stabilities of Compounds (1F), […], and W-212393 were determined upon exposure to human liver microsomes or rat liver microsomes according to a procedure disclosed in, e.g., Example 14 of U.S. Pat. No. 9,290,488, which is hereby incorporated by reference in its entirety. Liver microsomes from Crj;CD rats or humans were incubated with 2 μM of each tested compound; thereafter, the supernatant was analyzed by HPLC-MS for the concentration of the tested compound present. Human liver microsomes, pooled, 20 mg/mL, were obtained from […] #H0610). […] Alternatively and if desired, rat liver microsomes can be obtained commercially from, e.g., XenoTech (Sprague-Dawley rat liver microsomes, pooled, 20 mg/mL, cat #R1000). β-NADPH (β-nicotinamide adenine dinucleotide 2'-phosphate reduced tetrasodium salt hydrate) was obtained from Oriental Yeast Co., Ltd. (Tokyo, Japan). Each tested compound, present at an initial concentration of 2 μM, was incubated at 37° C. in the presence of 0.5 mg/mL of either human microsomes or rat microsomes in suspension in 50 mM Tris-HCl buffer (7.4 pH), 150 mM KCl, 10 mM MgCl2, and 1 mM β-NADPH. Incubation was initiated upon the addition of a 100-fold concentrated solution of the tested compound to one of the microsome preparations. Incubation was terminated by addition of a two-fold volume of a 1/1 mixture of acetonitrile/methanol after either 0 minutes or 30 minutes of incubation at 37° C. Thereafter, proteins and other macromolecules from the microsome preparation were removed by centrifugation. All incubations were conducted in duplicate. […] The HPLC system consisted of a Waters 2795 separations module (Waters Corp., Milford, Mass.) equipped with an inline degasser, temperature controlled auto-sampler, and column oven. The analytical column was a Waters […], 2.1 mm×20 mm column. The mass analyzer was a Waters ZQ, single quadrupole mass spectrometer equipped with an electrospray ionization source operating in the positive ionization mode and utilizing a stainless steel spray capillary. […]

[5] = test system: rat liver microsomes; assay: In vitro metabolic stability, rat liver microsomes; type: in vitro ADME; details: 2 μM, % remaining after 30 minutes at 37° C.
Description: as §2

[6] = Aqueous solubility at pH about 6.8; type: physicochemical; details: 25 °C, pH 6.8, aqueous buffer, kinetic from dmso stock
[7] = test system: rats; assay: In vivo functional observational battery (FOB); details: for Increased touch response: 10 mg/kg
[8] = In vivo functional observational battery (FOB); details: male, Crl:CD(SD), rat, in vivo, po
[9] = target: mu-opioid receptor (Homo sapiens, UniProt P35372); details: determined in Example 18 of U.S. Pat. No. 8,476,271; cited from earlier work
Chain of mu-opioid receptor (P35372 whole entry): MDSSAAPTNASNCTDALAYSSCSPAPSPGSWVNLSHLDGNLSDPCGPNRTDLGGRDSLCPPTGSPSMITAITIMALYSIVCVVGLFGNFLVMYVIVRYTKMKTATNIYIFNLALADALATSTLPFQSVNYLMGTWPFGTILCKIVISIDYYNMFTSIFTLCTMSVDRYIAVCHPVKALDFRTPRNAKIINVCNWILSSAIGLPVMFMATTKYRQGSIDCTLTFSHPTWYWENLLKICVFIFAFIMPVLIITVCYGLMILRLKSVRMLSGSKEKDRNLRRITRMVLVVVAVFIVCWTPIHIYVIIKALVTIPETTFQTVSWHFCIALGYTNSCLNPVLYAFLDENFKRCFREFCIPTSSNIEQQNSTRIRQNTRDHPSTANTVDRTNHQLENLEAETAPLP

[10] = target: ORL-1 receptor (Homo sapiens, UniProt P41146); assay: Functional [^35S]GTPγS binding assay, ORL-1; type: biochemical; details: from ORL-1 Emax results in Table 21
Chain of ORL-1 receptor (P41146 whole entry): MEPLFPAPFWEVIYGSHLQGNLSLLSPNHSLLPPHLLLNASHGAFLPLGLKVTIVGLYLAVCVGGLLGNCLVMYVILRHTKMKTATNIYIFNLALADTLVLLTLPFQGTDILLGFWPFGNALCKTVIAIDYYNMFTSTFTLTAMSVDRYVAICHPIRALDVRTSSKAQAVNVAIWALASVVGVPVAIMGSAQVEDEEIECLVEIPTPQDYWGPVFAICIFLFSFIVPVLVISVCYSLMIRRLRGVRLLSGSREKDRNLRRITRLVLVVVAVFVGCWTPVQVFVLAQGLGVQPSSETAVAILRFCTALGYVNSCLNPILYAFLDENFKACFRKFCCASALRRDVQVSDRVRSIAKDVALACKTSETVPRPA

[11] = test system: rat plasma; assay: Rat protein binding, equilibrium dialysis of rat plasma; type: in vitro ADME
Description: as §1

[12] = Free unbound compound fraction, equilibrium dialysis of rat serum; type: in vitro ADME; details: male, Crl:CD (SD), rat, rat serum; 2 μg/mL, 24 hours dialysis at 37° C.
Description: (§3) The extent of in vitro binding of Compound (1F) or W-212393 to rat serum was determined as an assessment of the availability of free unbound compound for modulating receptor activity according to a procedure disclosed in, e.g., Example 15 of U.S. Pat. No. 9,290,488, which is hereby incorporated by reference in its entirety. Serum from rats containing a tested compound in one chamber of a dialysis cell was dialyzed with phosphate buffered saline (“PBS”) in the other chamber; thereafter, the supernatant from each chamber was analyzed for the concentration of the tested compound present. […] The final concentration of each tested compound in the serum sample was adjusted to 2 μg/mL by adding an appropriate volume of PBS. A cell suitable for equilibrium dialysis was used in the determinations. A SPECTRA/POR dialysis membrane (with molecular mass cutoff of 12,000-14,000 Da, Spectrum Laboratories, Inc., Rancho Dominguez, Calif.) separated the dialysis cell into two chambers. A 500 μL aliquot of the serum sample containing a tested compound was applied to one chamber (serum chamber) of the dialysis cell. A 500 μL aliquot of PBS was applied to the other chamber (PBS chamber) of the dialysis cell. The dialysis study was conducted in duplicate for each tested compound. After 24 hours of equilibrium dialysis at 37° C., 30 μL of liquid from the serum chamber of the dialysis cell was collected and to this was added 270 μL of fresh PBS (this combination was designated Sample “A”). Then, 270 μL of liquid from the PBS chamber of the dialysis cell was collected and to this was added 30 μL of control rat serum (i.e., rat serum never exposed to any test compound, this combination was designated Sample “B”). […] Each supernatant was analyzed by LC-MS-MS. […] Thereafter, the percentage of free unbound tested compound was calculated from the ratio of the tested compound amount determined from Sample B divided by the sum of the tested compound amounts determined from Sample A and Sample B.

[13] = test system: rat serum; assay: as above; type: in vitro ADME; details: average of multiple determinations
Description: as §3

[14] = test system: rats; assay: EEG/EMG sleep-wake analysis, single administration compared to zolpidem; type: in vivo, rat
[15] = test system: chronic insomniacs; details: 10 mg zolpidem, PSG in chronic insomniacs; cited from earlier work
[16] = 50 mM phosphate buffer, second procedure (50 mM phosphate buffer, HPLC), read-out: Solubility at pH 6.8
[17] = first procedure (JP2 solution, LC-MS), read-out: Solubility at pH 6.8
[18] = 30 mg/kg, 1 h after administration
[19] = 30 mg/kg, 2 h after administration
[20] = 30 mg/kg, 4 h after administration
[21] = 30 mg/kg, 6 h after administration
[22] = 30 mg/kg, 8 h after administration
[23] = 30 mg/kg, 24 h after administration
[24] = 300 mg/kg, 1 h after administration
[25] = 300 mg/kg, 2 h after administration
[26] = 300 mg/kg, 4 h after administration
[27] = 300 mg/kg, 6 h after administration
[28] = 300 mg/kg, 8 h after administration
[29] = 300 mg/kg, 24 h after administration

## C[C@@H]1C[C@@H]2C[C@H](C1)C[C@@H](N1[C@@H]3CCC[C@H]1C[C@@H](n1c(=O)c(C(=O)O)nc4ccccc41)C3)C2 [Compound 405K]
[1]
  fraction unbound at 24 h, 2 μg/mL: ~0.14
[2]
  bioavailability: 63.7%
[3]
  Kp at 30 min: 0
[4]
  Human Metabolic Stability (%): 95.1%
[5]
  Rat Metabolic Stability (%): 96.9%
[6]; [16]
  solubility at 16 h: 5 µM (≈ 2.25 µg/mL)
[6]; [17]
  solubility at 16 h: 8 µM (≈ 3.6 µg/mL)
[6]; pH of about 6.8, average of two determinations, read-out: aqueous solubility, average
  solubility at 16 h: ~6.5 µM (≈ 2.92 µg/mL)

## C[C@@H]1C[C@@H]2C[C@H](C1)C[C@@H](N1[C@@H]3CCC[C@H]1C[C@@H](n1c(=O)c(C(=O)O)nc4ccccc41)C3)C2 [Compound 405]
[7]; 1 h after administration
  Increased touch response: 1 of 6
[7]; 2 h after administration
  Increased touch response: N
[7]; 4 h after administration
  Increased touch response: N
[7]; 6 h after administration
  Increased touch response: N
[7]; 8 h after administration
  Increased touch response: N
[7]; 24 h after administration
  Increased touch response: N
[7]; [18]
  Biting behavior: N
  Jumping: N
[7]; [19]
  Biting behavior: N
  Jumping: N
[7]; [20]
  Biting behavior: N
  Jumping: N
[7]; [21]
  Biting behavior: 3 of 6
  Jumping: 1 of 6
[7]; [22]
  Biting behavior: N
  Jumping: N
[7]; [23]
  Biting behavior: N
  Jumping: N
[7]; 100 mg/kg, 1 h after administration
  Biting behavior: N
[7]; 100 mg/kg, 2 h after administration
  Biting behavior: N
[7]; 100 mg/kg, 4 h after administration
  Biting behavior: N
[7]; 100 mg/kg, 6 h after administration
  Biting behavior: 1 of 6
[7]; 100 mg/kg, 8 h after administration
  Biting behavior: 1 of 6
[7]; 100 mg/kg, 24 h after administration
  Biting behavior: N
[7]; [24]
  Biting behavior: N
  Jumping: N
[7]; [25]
  Biting behavior: N
  Jumping: N
[7]; [26]
  Biting behavior: N
  Jumping: N
[7]; [27]
  Biting behavior: 2 of 6
  Jumping: 1 of 6
[7]; [28]
  Biting behavior: 1 of 6
  Jumping: 2 of 6
[7]; [29]
  Biting behavior: N
  Jumping: N
[8]
  NOAEL: 10 mg/kg

## O=C(O)c1nc2ccccc2n([C@H]2C[C@H]3CCC[C@@H](C2)N3C2CC3CCCC(C3)C2)c1=O (stereo partly shown) [Compound (1C)]
[9]
  GTPγS Mu Emax: 0%
[10]
  agonist classification at ORL-1 from Emax: partial agonists

## O=C(O)c1nc2ccccc2n([C@H]2C[C@H]3CCC[C@@H](C2)N3C2CC3CCCC(C3)C2)c1=O (stereo partly shown) [Compound (1F)]
[11]; 2 μg/mL, 24 hours dialysis at 37° C.
  Rat Protein Binding (%): 53.0%
[11]; average of multiple determinations
  bound compound fraction, average: 52%
[1]
  fraction unbound at 24 h, 2 μg/mL: 0.491
[12]
  fraction unbound at 24 h, 2 μg/mL: 0.65 to 0.7
[13]
  free unbound compound fraction, average: 67.5%
[4]
  Human Metabolic Stability (%): 98.7%
[5]
  Rat Metabolic Stability (%): 95.3%
[6]; [16]
  solubility at 16 h: 35 µM (≈ 15.2 µg/mL)
[6]; [17]
  solubility at 16 h: > 50 µM
[6]; pH of about 6.8, over both determinations, read-out: aqueous solubility
  solubility at 16 h: ≥ 35 µM

## Cc1ccc(-c2nc3ccc(C)cn3c2CC(=O)N(C)C)cc1 [zolpidem, reference compound]
[14]; single zolpidem dose of 10 mg/kg oral
  overall sleep effect: sleep-enhancing effect
[14]; zolpidem 10 mg/kg oral (FIG. 17B, 18B)
  effect on percentage of time spent in REM sleep: no significant effects
[14]; zolpidem 10 mg/kg oral, 3 hour block 0-3 hours after dosing (FIG. 18C)
  NREM sleep versus vehicle: significant increase
[14]; zolpidem 10 mg/kg oral, 3 hour blocks, 0-12 hours after administration (FIG. 18A)
  wakefulness versus vehicle: decreased tendency
[14]; zolpidem 10 mg/kg oral, at 1 hour after dosing (FIG. 17A)
  percentage of time spent in wakefulness: about 46%
[14]; zolpidem 10 mg/kg oral, at 1 hour after dosing (FIG. 17C)
  percentage of time spent in NREM sleep: about 53%
[14]; zolpidem 10 mg/kg oral, at 10 hours after dosing (FIG. 17A)
  percentage of time spent in wakefulness: ~43%
[14]; zolpidem 10 mg/kg oral, at 15 hours after dosing (FIG. 17C)
  percentage of time spent in NREM sleep: ~30%
[14]; zolpidem 10 mg/kg oral, at 15 hours after dosing, lights-on period (FIG. 17A)
  percentage of time spent in wakefulness: about 69%
[15]
  Mean percent SE higher than placebo group: 7%

— patent US10974081B2, “Treatment and prevention of sleep disorders” (Purdue Pharma L.P., priority 2016, dated 2021)
